Results on nine compounds are retold here after PubChem BioAssay (NCI).

Each structure is given as a SMILES string.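 Step 1: Grow cells in 96-well plates. Step 2: Expose to compound for 48 hours at 5 concentrations. Step 3: Interpolate endpoints linearly; if unreached, use highest concentration. GI50 marks 50% less growth. TGI marks complete inhibition of growth.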 Where only a bound is given, the exact number is not on record here.

Test systems include A498 renal; SK-MEL-5 melanoma; CAKI-1 renal; HCT-15 colon; T-47D breast; SNB-75 CNS; SF-295 CNS; 786-0 renal; HOP-92 NSCLC; MCF7 breast.
Assay in all cases: growth of human tumour cells (NCI), 48 h

With `C#COc1cccc(Nc2ncnc3ncc(NC(=O)CCl)cc23)c1`, the GI50 with A498 renal was > 62.5 µM; in the assay with SK-MEL-5 melanoma it was > 51.2 µM; in the assay on CAKI-1 renal it was > 15.2 µM; in the assay on HCT-15 colon, > 14 µM; with T-47D breast, > 62.5 µM; in the assay on SNB-75 CNS it was > 60.1 µM. In addition, the GI50 in the assay on SF-295 CNS was > 52.9 µM; with 786-0 renal it was 2.71 µM; with HOP-92 NSCLC, > 62.5 µM; in the assay with MCF7 breast, > 16.6 µM. The TGI with A498 renal, in the assay with SK-MEL-5 melanoma, with CAKI-1 renal, in the assay with HCT-15 colon, with T-47D breast and in the assay on SNB-75 CNS was > 62.5 µM throughout. The TGI in the assay with SF-295 CNS, in the assay on 786-0 renal, with HOP-92 NSCLC and in the assay on MCF7 breast was > 62.5 µM in each case.

With `CC1OC(OC2CC(O)C3(CO)C4C(O)CC5(C)C(C6=CC(=O)OC6)CCC5(O)C4CCC3(O)C2)C(O)C(O)C1O` (configuration not stated), the GI50 is < 0.0183 µM in the assay with A498 renal; < 0.0151 µM with SK-MEL-5 melanoma; < 0.0146 µM in the assay with CAKI-1 renal; < 0.0133 µM in the assay on HCT-15 colon; < 0.0121 µM in the assay on T-47D breast; < 0.0138 µM in the assay with SF-295 CNS. The values for the GI50 in the assay with 786-0 renal, in the assay with HOP-92 NSCLC and with MCF7 breast were < 0.0129 µM, 0.0216 µM and < 0.0163 µM, respectively. For the same compound, the TGI with A498 renal came to 0.102 µM; in the assay on SK-MEL-5 melanoma, 0.0267 µM; in the assay with CAKI-1 renal, 0.024 µM; with HCT-15 colon, 0.024 µM; with T-47D breast, 0.0342 µM; in the assay with SNB-75 CNS, 0.099 µM. Besides, the TGI with SF-295 CNS is 0.0291 µM; in the assay with 786-0 renal, < 0.0179 µM; with HOP-92 NSCLC, 0.0791 µM; in the assay with MCF7 breast, 0.29 µM.

On to `COc1ccc(-c2nn(-c3cccc(NC(=O)Nc4cc(C(F)(F)F)cc(C(F)(F)F)c4)c3)cc2-c2ccncc2)cc1Cl`, for which the GI50 was 0.507 µM with A498 renal; 0.827 µM in the assay with SK-MEL-5 melanoma; 1.07 µM in the assay on CAKI-1 renal; 0.962 µM with HCT-15 colon; 1.07 µM in the assay with T-47D breast; 0.813 µM in the assay with SNB-75 CNS. The GI50 in the assay on SF-295 CNS was 1.01 µM; in the assay with 786-0 renal it was 0.976 µM; in the assay on HOP-92 NSCLC, 0.17 µM; in the assay with MCF7 breast, 1.01 µM. Further, the TGI in the assay on A498 renal stood at 3.17 µM; with SK-MEL-5 melanoma, 1.7 µM; with CAKI-1 renal, 9.44 µM; in the assay on HCT-15 colon it was 4.08 µM; in the assay with T-47D breast, 7.17 µM; with SNB-75 CNS, 4.18 µM. Also, the TGI worked out at 3.36 µM in the assay with SF-295 CNS, 2.74 µM in the assay with 786-0 renal, 1.33 µM in the assay with HOP-92 NSCLC and 5.98 µM in the assay with MCF7 breast.

On to `COc1cc([C@@H]2c3cc4c(cc3[C@@H](O[C@@H]3O[C@@H]5CO[C@@H](c6cccs6)O[C@H]5[C@H](O)[C@H]3O)[C@H]3COC(=O)[C@H]23)OCO4)cc(OC)c1O`, for which the GI50 with A498 renal was 0.284 µM; in the assay with SK-MEL-5 melanoma, 0.157 µM; with CAKI-1 renal it was 0.557 µM; with T-47D breast it was 0.207 µM; in the assay on SNB-75 CNS it was 0.104 µM; with SF-295 CNS, 0.186 µM. Besides, the figures for the GI50 in the assay on 786-0 renal and with MCF7 breast were 0.193 µM and 0.0491 µM, respectively. Further, the TGI is 2.2 µM in the assay on A498 renal; 1.33 µM in the assay with SK-MEL-5 melanoma; 24.2 µM in the assay on CAKI-1 renal; > 55.9 µM in the assay with HCT-15 colon; 12.3 µM in the assay with T-47D breast; 1.56 µM with SNB-75 CNS. In addition, the TGI in the assay on SF-295 CNS is 8.21 µM; in the assay on 786-0 renal, 1.34 µM; in the assay on HOP-92 NSCLC, 1.99 µM; in the assay on MCF7 breast, > 100 µM.

As to `CC(=O)OC1CCC2(C)C(=CCC3C2CCC2(C)C(C(C)C(=O)O)CCC32)C1` (configuration not stated), the TGI in the assay on A498 renal, in the assay with SK-MEL-5 melanoma, in the assay on CAKI-1 renal, in the assay with HCT-15 colon, in the assay on T-47D breast and with SNB-75 CNS was > 100 µM in each case. The TGI in the assay on SF-295 CNS, with 786-0 renal, with HOP-92 NSCLC and with MCF7 breast was > 100 µM in each case.

In the case of `O=C(NNC(=O)c1ccncc1)c1ccncc1`, the TGI with A498 renal, in the assay with SK-MEL-5 melanoma, in the assay on CAKI-1 renal, with HCT-15 colon, with T-47D breast and with SNB-75 CNS was > 100 µM throughout. The TGI in the assay with SF-295 CNS, in the assay with 786-0 renal, in the assay with HOP-92 NSCLC and with MCF7 breast was > 100 µM throughout.

For `C=C1CCC2C3(C)COC(c4ccc(SC)cc4)OC3CCC2(C)C1C/C=C1/C(=O)OCC1O` (configuration not stated), the GI50 in the assay on A498 renal was 8.64 µM; in the assay with SK-MEL-5 melanoma, 6.85 µM; in the assay with CAKI-1 renal, 11.2 µM; in the assay on HCT-15 colon it was 2.37 µM; in the assay with T-47D breast, 2.53 µM; in the assay on SNB-75 CNS, 10.1 µM. In addition, the GI50 in the assay with SF-295 CNS was 8.14 µM; in the assay on 786-0 renal, 6.7 µM; in the assay with HOP-92 NSCLC it was 5.19 µM; in the assay with MCF7 breast, 3.04 µM. Besides, the TGI with A498 renal was 22.4 µM; with SK-MEL-5 melanoma, 19.4 µM; with CAKI-1 renal, 28.2 µM; in the assay with HCT-15 colon, 7.96 µM; in the assay on T-47D breast it was 13.7 µM; in the assay on SNB-75 CNS it was 21.7 µM. In addition, the TGI is 23.7 µM in the assay on SF-295 CNS, 19.2 µM with 786-0 renal, 17.1 µM in the assay on HOP-92 NSCLC and 11.7 µM in the assay on MCF7 breast.

With `CC(=O)OC(C)(C)N=Nc1ccc(Br)cc1`, the TGI in the assay on A498 renal is > 100 µM; in the assay on SK-MEL-5 melanoma, 6.26 µM; with CAKI-1 renal it was 48.3 µM; with HCT-15 colon it was > 100 µM; in the assay with T-47D breast, 44.4 µM; with SNB-75 CNS, > 91.5 µM. The TGI was > 60.1 µM in the assay on SF-295 CNS, > 100 µM with 786-0 renal, 67.6 µM with HOP-92 NSCLC and > 100 µM in the assay on MCF7 breast.

Turning to `CC(=O)OC[C@]12CC[C@@H]([C@@H](C)C(N)=O)[C@@H]1[C@H]1CC[C@@H]3[C@@]4(C)CC[C@H](OC(C)=O)C(C)(C)[C@@H]4CC[C@@]3(C)[C@]1(C)CC2`, the GI50 in the assay with A498 renal is 12.8 µM; in the assay with SK-MEL-5 melanoma it was 3.8 µM; in the assay with CAKI-1 renal, 3.24 µM; in the assay on HCT-15 colon, 4.04 µM; with T-47D breast it was 2.91 µM; with SNB-75 CNS, 5.59 µM. Besides, the GI50 in the assay with SF-295 CNS was 8.57 µM; in the assay with 786-0 renal, 10.9 µM; in the assay with HOP-92 NSCLC, 5.21 µM; in the assay on MCF7 breast, 3.27 µM. Besides, the TGI with A498 renal was found to be 25.6 µM; with SK-MEL-5 melanoma, 13.1 µM; in the assay with CAKI-1 renal, 15.4 µM; in the assay on HCT-15 colon, 15.3 µM; in the assay with T-47D breast it was 12.9 µM; in the assay on SNB-75 CNS, 44.6 µM. For the same compound, the TGI in the assay on SF-295 CNS stood at 29.8 µM; in the assay with 786-0 renal, 26.3 µM; with HOP-92 NSCLC, 19.4 µM; in the assay with MCF7 breast, 12.4 µM.
